Results as given in patent publication US20070254903A1, “Novel Spiroindoline or Spiroisoquinoline Compounds, Methods of Use and Compositions Thereof” (ARENA PHARMACEUTICALS, INC., priority 2003, published 2007).

Experiments:
[1] = tested on: isolated adult rat hearts; assay: Ischemia-Reperfusion Assay 1 (Langendorff apparatus); details: 10 μM; 30 min ischemia, 30 min reperfusion; compared to vehicle; FIG. 2
Procedure: Male Sprague-Dawley rats (300-350 g body weight) were anesthetized with pentobarbital sodium (50 mg/kg IP) then heparin (400 IU IP) was administered 10 minutes prior to surgery. The chest wall was opened and the heart was rapidly excised and immediately placed into ice-cold Krebs-Henseleit (KH) buffer (118 mM NaCl, 4.7 mM KCl, 1.2 mM MgSO4, 1.2 mM KH2PO4, 1.5 mM CaCl2, 25 mM NaHCO3, 11 mM glucose, 1 mM pyruvate, and 0.005 mM EDTA) to produce cardiac arrest. The aorta was then cannulated and the heart retrogradely perfused with KH buffer maintained at 37° C. in a reservoir bubbled with 95% O2/5% CO2 (pH7.4) on the Langendorff apparatus at a constant pressure of 80 mmHg. Myocardial temperature was maintained at 37° C. by partially submerging the heart into a water-jacketed chamber filled with KH buffer. A water filled latex balloon attached to a metal cannula and inserted into the left ventricle via the mitral valve and connected to a pressure transducer (Powerlab, ADInstruments, Inc) was used for measurement of left ventricular pressure. The balloon was initially inflated to an end-diastolic pressure of 10 mmHg. […] The difference between peak-systolic and end diastolic pressures, or left ventricular developed pressure (LVDP) was calculated as an index of contractile function and measured just prior to ischemia and at the end of reperfusion. […]

[2] = tested on: isolated adult rat hearts; assay: Ischemia-Reperfusion Assay 2 (Langendorff apparatus)
Procedure: Male Sprague-Dawley rats (300-350 g body weight) were anesthetized with Inactin (100 mg/kg IP) 20 minutes prior to surgery. The chest wall was opened and the heart was rapidly excised and immediately placed into ice-cold Krebs-Henseleit (KH) buffer (118 mM NaCl, 4.7 mM KCl, 1.2 mM MgSO4, 1.2 mM KH2PO4, 1.5 mM CaCl2, 25 mM NaHCO3, 11 mM glucose […], and 0.005 mM EDTA) to produce cardiac arrest. The aorta was then cannulated and the heart retrogradely perfused with KH buffer maintained at 37° C. in a reservoir bubbled with 95% O2/5% CO2 (pH7.4) on the Langendorff apparatus at a constant pressure of 70 mmHg. Myocardial temperature was maintained at 37° C. by partially submerging the heart into a water-jacketed chamber filled with KH buffer. A water filled latex balloon attached to a metal cannula and inserted into the left ventricle via the mitral valve and connected to a pressure transducer (Powerlab, ADInstruments, Inc) was used for measurement of left ventricular pressure. The balloon was initially inflated to an end-diastolic pressure of 10 mmHg. After allowing 20 minutes for equilibration, rat hearts were subjected to 10 minutes of KH buffer containing drug or vehicle followed by 30 minutes of ischemia followed by 30 minutes of reperfusion. The difference between peak-systolic and end diastolic pressures, or left ventricular developed pressure (LVDP) was calculated as an index of contractile function and measured just prior to ischemia and at 10, 20 and 30 minutes of reperfusion. Percent recovery of LV function [(LVDP post reperfusion/LVDP pre-ischemia)[…]] was averaged across 5 vehicle and 4 drug treated hearts and one-way anova with Newman-Keuls Multiple Comparison Test was used to determine statistical significance.
Epicardial electrogram recordings were also taken from the isolated rat hearts used in FIGS. 3 and 4. Briefly, silver wire electrodes were placed on the right atrium and the apex of the left ventricle, allowing an epicardial electrogram to be recorded. […]

[3] = tested on: rats; assay: Measurement of blood pressure in rats (telemetry); assay type: in vivo, rat; details: conscious rats, IP injection, about 120 minutes after injection; FIG. 6
Procedure: Cardiac parameters were measured by small transmitting devices, (Data Sciences PhysioTel Telemetry devices), implanted in rats. The implanted transmitting devices were used to measure blood pressure in freely moving conscious animals. There are no external connections or tethering devices that can inhibit animal movement and induce unnecessary stress, which can affect the outcome of a study.
This procedure was performed under modified aseptic conditions. Rats were anesthetized with Isoflurane gas that ranged in concentration from 1.5-2.0%. A cardiac telemetry device was implanted into the peritoneal cavity with a pressure sensing catheter situated no more than 2 cm inside the descending aorta. This was accomplished as follows: The rat was shaved and the incision site was prepared with an iodine solution. The rat was then placed on a heating pad to maintain a constant body temp of 38±0.5° C., and covered with a sterile drape. A 6 cm midline abdominal incision was made to provide access to the implantation area. […] The rats were monitored for 7 days to ensure proper recovery.
On the test day, injections with either vehicle or with test compound were administered via IP injection in volumes of ˜250 μl. Animals were monitored with a resolution of approximately one measurement/min for 60 minutes before injection of vehicle or compound and for about 120 minutes after injection.

Structure (SMILES): C=CCN1CCC2(CC1)CN(C(=O)c1cccc(F)c1F)c1ccc(F)cc12 [Compound 75, 1′-(allyl)-1,2-dihydro-5-fluoro-1-(2,3-difluoro-benzoyl)-spiro[3H-indole-3,4′-piperidine]]
- percent recovery of left ventricle function [1]: significant increase in percent recovery of left ventricle function
- left ventricle function after reperfusion ([2]; 30 μM, 30 min ischemia, 30 min reperfusion, compared to vehicle, FIG. 3): significant increase in left ventricle function after reperfusion
- end diastolic pressure (EDP), ischemic contracture ([2]; 30 μM, compared to vehicle, FIG. 4): significant decrease in end diastolic pressure
- early reperfusion arrhythmias (hearts positive) ([2]; epicardial electrogram, first 5 minutes of reperfusion, FIG. 5): none of the four hearts
- blood pressure change [3]: did not result in a significant change in blood pressure
